Patent US10947196B2, “Beta adrenergic agonist and methods of using the same” (CURASEN THERAPEUTICS, INC., priority 2019, dated 2021)
pEC50: −log10 of the molar value. Like-named read-outs stand apart in the source and are kept apart here.

How the values were obtained:
Format in all cases: cell-based
[1] = target: β1-adrenergic receptor (Homo sapiens (Human), UniProt P08588); experiment: cAMP Gs dynamic HTRF assay, β1 expressing CHO cells; conditions: B1-AR; for EC50: read-out: Average pEC50 [Receptor subtype: B1-AR, Cell type: CHO-K1 (HitHunter)] (converted)
Summary of the method: (§1)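 Intracellular cAMP quantified by Eu-donor/d2-acceptor HTRF after 30 min compound exposure at 37° C in stimulation buffer with IBMX. Concentrations ran 10 μM top, 5-fold steps, 10 points. Cell lines: 1321N1 astrocytoma and CHO expressing β1 or β2; EC50 via four-parameter fit, relative efficacy against isoproterenol.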

[2] = target: β2 adrenergic receptor (Homo sapiens (Human), UniProt P07550); experiment: cAMP Gs dynamic HTRF assay, β2 expressing CHO cells; conditions: B2-AR; for EC50: read-out: Average pEC50 [Receptor subtype: B2-AR, Cell type: CHO-K1 (HitHunter)] (converted)
Summary of the method: as §1

[3] = target: β2 adrenergic receptors in human astrocytoma cells (1321N1) (Homo sapiens (Human), UniProt P07550); experiment: cAMP HTRF assay in human astrocytoma cells (1321N1); conditions: for EC50: read-out: Average pEC50 [Receptor subtype: Endogenous, Cell type: 1321N1] (converted)
Procedure: cAMP homogeneous time-resolved fluorescence (HTRF). Compound efficacy was determined using the cAMP Gs dynamic HTRF assay (Cisbio, catalog #62AM4PEC) largely following the manufacturer's instructions, also detailed below.
Compound preparation. […] Standard serial dilution curves were 10-point, 5-fold dilutions starting from a highest concentration of 10 μM. […] Assay plates were centrifuged at 500×g for 10 seconds. Compounds and IBMX were prepared at 2× final dose to compensate for addition of cells.
Cell preparation. 1× stimulation buffer, washing PBS (Dulbecco's phosphate-buffered saline, −Mg −Ca; Caisson Labs, catalog #PBL01), assay PBS (Dulbecco's phosphate-buffered saline, +Mg, +Ca; Caisson Labs, catalog #PBL02) and Versene (0.02% EDTA disodium salt solution in PBS without calcium or magnesium; Caisson Labs, catalog #EDL01) were pre-warmed to 37° C. Cells expressing beta-adrenergic receptor were washed in washing PBS to remove growth medium and then released from the surface by incubating with Versene for 5-10 minutes at 37° C. Cells were harvested using assay PBS, counted manually by hemocytometer or by an automated cell counter, pelleted by centrifugation (200×g, 5 minutes) and resuspended in 37° C. 1× stimulation buffer to a final density of 1.5×10^6 cells/mL. 5 μL of the suspended cell solution (7500 cell total) were added to all wells of the 384 well assay plate, the assay plate was covered with an Axygen® plate seal (Corning PCR-SP) and incubated in a humidified 37° C. environment supplemented with 5% CO2 for 30 minutes.
HTRF reagent addition, reading and data analysis. After 30 minutes of cell stimulation with test compound, the assay plates were centrifuged at 500×g for 10 seconds, and incubation was stopped with the addition of 5 μL cAMP-D2 acceptor, diluted 1:21 in detection and lysis buffer 2 (Cisbio 62CL2FDF) was added to all cells. Subsequently, 5 μL Anti-cAMP-Eu Donor, diluted 1:21 in detection and lysis buffer 2, was added to cells. Plates were sealed and reactions gently ‘vortexed’ at 900 rpm on a Heidolph Titramax 1000 for at least 30 minutes at room temperature. Plates were centrifuged again at 500×g for 10 seconds, and HTRF was measured using a Tecan Spark plate reader at 50 flashes per well. […] Potency estimates (EC50) were derived from the four-parameter nonlinear regression of the concentration-effect curve and an estimate of relative efficacy was determined by comparing the magnitude of the test compound HTRF signal window (min−max dose) with the signal window of the full agonist control, isoproterenol.

[4] = CHO-K cells, read-out: Average EC50 [Receptor subtype: B1-AR, Cell type: CHO-K]
[5] = CHO-K cells, read-out: Average EC50 [Receptor subtype: B2-AR, Cell type: CHO-K]
[6] = Endogenous receptor, 1321N1 cells
[7] = Average pEC50 [Receptor subtype: B1-AR, Cell type: CHO-K1 (HitHunter)], CHO-K1 (HitHunter)
[8] = Average pEC50 [Receptor subtype: B2-AR, Cell type: CHO-K1 (HitHunter)], CHO-K1 (HitHunter)

Sequence of β2 adrenergic receptor (P07550 whole entry, species assumed): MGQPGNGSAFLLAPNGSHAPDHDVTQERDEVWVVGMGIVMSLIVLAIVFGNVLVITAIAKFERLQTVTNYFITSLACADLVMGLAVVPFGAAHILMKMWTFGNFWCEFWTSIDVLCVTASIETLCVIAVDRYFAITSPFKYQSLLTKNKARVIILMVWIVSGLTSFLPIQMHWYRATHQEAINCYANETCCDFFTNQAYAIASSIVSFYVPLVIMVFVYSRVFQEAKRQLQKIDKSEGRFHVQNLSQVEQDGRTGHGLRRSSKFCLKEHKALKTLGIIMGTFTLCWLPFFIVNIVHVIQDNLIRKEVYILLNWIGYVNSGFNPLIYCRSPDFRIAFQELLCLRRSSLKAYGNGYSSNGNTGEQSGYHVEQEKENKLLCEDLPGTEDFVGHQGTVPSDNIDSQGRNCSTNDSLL
Sequence of β2 adrenergic receptors in human astrocytoma cells (1321N1) (P07550 whole entry): as the sequence (P07550 whole entry, species assumed) above
Sequence of β1-adrenergic receptor (P08588 whole entry, species assumed): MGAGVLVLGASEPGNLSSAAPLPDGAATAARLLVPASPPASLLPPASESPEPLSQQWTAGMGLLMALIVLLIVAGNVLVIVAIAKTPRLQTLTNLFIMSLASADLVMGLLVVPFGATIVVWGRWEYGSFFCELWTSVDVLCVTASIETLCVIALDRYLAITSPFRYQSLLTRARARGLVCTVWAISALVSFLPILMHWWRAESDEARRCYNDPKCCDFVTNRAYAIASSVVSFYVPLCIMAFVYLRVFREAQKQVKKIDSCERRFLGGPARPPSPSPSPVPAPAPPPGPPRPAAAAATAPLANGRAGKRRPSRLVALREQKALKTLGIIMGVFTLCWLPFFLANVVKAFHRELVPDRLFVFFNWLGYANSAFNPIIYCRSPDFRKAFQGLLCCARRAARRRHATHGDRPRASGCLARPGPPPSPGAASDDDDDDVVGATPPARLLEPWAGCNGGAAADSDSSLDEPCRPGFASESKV

Row | SMILES | EC50 ([1]; CHO-K1 (HitHunter)) [µM] | EC50 ([2]; CHO-K1 (HitHunter)) [µM] | EC50 [3, 6] [µM] | also measured
1 | Cc1cccc([C@@H](O)CNC(C)(C)C)n1 [Compound 03-6] | 0.01 to 0.1 | 0.01 to 0.1 | 0.1 to 1 | pEC50 [1, 4]: 7.00 to 8.00; pEC50 [2, 5]: 7.00 to 8.00
2 | CC(C)(C)NC[C@H](O)c1cccnc1C1CC1 [Compound 03-54] | 0.1 to 1 | 0.01 to 0.1 |  | pEC50 [1, 4]: 6.00 to 7.00; pEC50 [2, 5]: 7.00 to 8.00; Average pEC50 [Receptor subtype: Endogenous; Cell type: 1321N1] [3, 6]: C (C = <7-6); pEC50 ([3]; Endogenous receptor, 1321N1 cells, read-out: Average EC50 [Receptor subtype: Endogenous, Cell type: 1321N1]): 6.00 to 7.00
3 | COc1ccc(C[C@@H](C)NC[C@H](O)c2cccnc2C2=CCCC2)cc1 [Compound 03-63] |  |  |  | pEC50 [1, 7]: < 6.00; pEC50 [2, 8]: 6.00 to 7.00; pEC50 [3]: < 6.00
4 | COc1ccc(C[C@@H](C)NC[C@H](O)c2cccnc2C2CCCC2)cc1 [Compound 03-64] |  |  |  | pEC50 [1, 7]: < 6.00; pEC50 [2, 8]: 6.00 to 7.00; pEC50 [3]: 6.00 to 7.00
5 | COc1ccc(C[C@@H](C)NC[C@H](O)c2cccnc2C)cc1 [Compound 03-66] | 0.01 to 0.1 | < 0.01 | 0.1 to 1 | 
6 | Cc1ccc([C@@H](O)CNC(C)(C)C)c(C)n1 [Compound 03-67] | 0.1 to 1 | < 0.01 | 0.01 to 0.1 | 
7 | CC(C)(C)NC[C@H](O)c1cccnc1OC(F)(F)F [Compound 03-70] | 0.1 to 1 | 0.01 to 0.1 | 0.01 to 0.1 | 
8 | CC(C)(C)NC[C@H](O)c1cccnc1OC1CC1 [Compound 03-71] | 0.1 to 1 | 0.01 to 0.1 | 0.01 to 0.1 | 
9 | CC(C)(C)NC[C@H](O)c1cccnc1OC1CCC1 [Compound 03-72] | 0.01 to 0.1 | < 0.01 | 0.01 to 0.1 | 
10 | CC(C)(C)NC[C@H](O)c1cc(F)cnc1C1CCCC1 [Compound 03-80] | > 1 | 0.01 to 0.1 | 0.1 to 1 | 
11 | CC(C)(C)NC[C@H](O)c1cc(F)cnc1C1=CCCC1 [Compound 03-89] | > 1 | 0.1 to 1 | > 1 | 
12 | CC(C)(C)NC[C@H](O)c1cccc(-c2ccc[nH]2)n1 [Compound 03-95] | < 0.01 | < 0.01 | < 0.01 | 
13 | CC(C)(C)NC[C@H](O)c1cccc(-n2nccn2)n1 [Compound 03-101] | > 1 | 0.01 to 0.1 | 0.1 to 1 | 
14 | CC(C)(C)NC[C@H](O)c1cccc(-n2ccnn2)n1 [Compound 03-102] | 0.1 to 1 | 0.01 to 0.1 | 0.01 to 0.1 | 
15 | CC(C)(CO)NC[C@H](O)c1cccc(C#N)n1 [Compound 03-104] | 0.1 to 1 | 0.1 to 1 | 0.1 to 1 | 
16 | CC(C)(C)NC[C@@H](O)c1ccnc(C#N)c1 [Compound 03-111] | > 1 | 0.01 to 0.1 | 0.1 to 1 | 
17 | CC(C)(C)NC[C@H](O)c1cccc(C2CCOCC2)n1 [Compound 03-121] | 0.1 to 1 | < 0.01 | < 0.01 | pEC50 [1, 4]: 7.00 to 8.00; pEC50 [2, 5]: > 8.00
18 | CC(C)(C)NC[C@H](O)c1cccc(-n2cccc2)n1 [Compound 03-123] |  | < 0.01 | < 0.01 | Average pEC50 [Receptor subtype: B1-AR; Cell type: CHO-K1 (HitHunter)] ([1]; CHO-K1 (HitHunter)): A (A > 8); pEC50 [1, 4]: > 8.00; pEC50 [2, 5]: > 8.00
19 | CNc1cccc([C@H](O)CNC(C)(C)C)n1 [Compound 03-142] | > 1 | 0.1 to 1 | > 1 | pEC50 [1, 4]: < 6.00; pEC50 [2, 5]: 6.00 to 7.00
20 | CN(C)c1cccc([C@@H](O)CNC(C)(C)C)n1 [Compound 03-153] | 0.01 to 0.1 | < 0.01 | 0.01 to 0.1 | pEC50 [1, 4]: 7.00 to 8.00; pEC50 [2, 5]: > 8.00
21 | CC(C)(C)NC[C@@H](O)c1cccc(C2CCC2)n1 [Compound 03-162] |  | 0.01 to 0.1 | 0.1 to 1 | Average pEC50 [Receptor subtype: B1-AR; Cell type: CHO-K1 (HitHunter)] ([1]; CHO-K1 (HitHunter)): D (D < 6); pEC50 [1, 4]: < 6.00; pEC50 [2, 5]: 7.00 to 8.00
22 | CC(C)(C)NCC(O)c1cc(C#N)cc(C(F)(F)F)n1 (stereo not drawn) [Compound 03-181] | > 1 | 0.1 to 1 | 0.1 to 1 | pEC50 [1, 4]: < 6.00; pEC50 [2, 5]: 6.00 to 7.00
23 | CC(C)(C)NC[C@H](O)c1cccc(NC2CC2)n1 [Compound 03-189] | 0.01 to 0.1 | < 0.01 | 0.01 to 0.1 | 

Row | SMILES | EC50 ([1]; CHO-K1 (HitHunter)) [µM] | EC50 ([2]; CHO-K1 (HitHunter)) [µM] | EC50 [3, 6] [µM] | also measured
24 | CNCc1cccc([C@@H](O)CNC(C)(C)C)n1 [Compound 03-252] | > 1 | > 1 |  | 
25 | CNCc1cccc([C@@H](O)CN[C@H](C)Cc2ccc(OC)cc2)n1 [Compound 03-254] | > 1 | 0.1 to 1 |  | 
26 | Cc1ncc(F)cc1[C@@H](O)CNC(C)(C)C [Compound 03-258] | 0.1 to 1 | 0.01 to 0.1 |  | 
27 | COc1ccc([C@@H](O)CNC(C)(C)C)c(C)n1 [Compound 03-259] | 0.01 to 0.1 | < 0.01 |  | 
28 | COc1ccc(C[C@@H](C)NC[C@H](O)c2cc(F)cnc2C)cc1 [Compound 03-260] |  |  |  | pEC50 [1, 7]: < 6.00; pEC50 [2, 8]: > 8.00
29 | Cc1ncc([C@@H](O)CNC(C)(C)C)c(C)n1 [Compound 03-261] | > 1 | 0.1 to 1 |  | 
30 | CCNc1cccc([C@@H](O)CNC(C)(C)C)n1 [Compound 03-262] | 0.01 to 0.1 | < 0.01 |  | 
31 | CC(C)(C)NC[C@H](O)c1cccc(NC2CC(F)(F)C2)n1 [Compound 03-263] | 0.01 to 0.1 | < 0.01 |  | 
32 | CC(C)(C)NC[C@H](O)c1cccc(NC2(C)CC2)n1 [Compound 03-264] | 0.01 to 0.1 | < 0.01 |  | 
33 | COc1ccc(C[C@@H](C)NC[C@H](O)c2cccc(C3CCCC3)n2)cc1 [Compound 03-265] | 0.01 to 0.1 | < 0.01 |  | 
34 | CC(C)(C)NC[C@H](O)c1cccc(NCC(F)(F)F)n1 [Compound 03-266] | < 0.01 | < 0.01 |  | 
35 | Cc1nc(C2CC2)ccc1[C@@H](O)CNC(C)(C)C [Compound 03-268] | 0.01 to 0.1 | < 0.01 |  | 
36 | COc1ccc(C[C@@H](C)NC[C@H](O)c2ccc(C3CC3)nc2C)cc1 [Compound 03-269] |  |  |  | Average pEC50 [Receptor subtype: B1-AR; Cell type: CHO-K1 (HitHunter)] ([1]; CHO-K1 (HitHunter)): B (B = 8-7); Average pEC50 [Receptor subtype: B2-AR; Cell type: CHO-K1 (HitHunter)] ([2]; CHO-K1 (HitHunter)): A (A > 8)
37 | COc1ccc(C[C@@H](C)NC[C@H](O)c2cnc(C)nc2C)cc1 [Compound 03-270] |  |  |  | pEC50 [1, 7]: < 6.00; pEC50 [2, 8]: 7.00 to 8.00
38 | COc1ccc(C[C@@H](C)NC[C@H](O)c2cc(Cl)cnc2C)cc1 [Compound 03-271] | 0.1 to 1 | 0.01 to 0.1 |  | 
39 | CC(C)(C)NC[C@@H](O)c1cccc(OC(C)(C)C)n1 [Compound 03-273] | > 1 | 0.1 to 1 |  | 
40 | Cc1nc(NC2CC2)ccc1[C@@H](O)CNC(C)(C)C [Compound 03-274] | > 1 | 0.01 to 0.1 |  | 
41 | COc1ccc(C[C@@H](C)NC[C@H](O)c2ccc(NC3CC3)nc2C)cc1 [Compound 03-275] |  |  |  | pEC50 [1, 7]: < 6.00; pEC50 [2, 8]: 7.00 to 8.00
42 | CNc1ccc([C@@H](O)CNC(C)(C)C)c(C)n1 [Compound 03-276] | 0.1 to 1 | 0.01 to 0.1 |  | 
43 | CNc1ccc([C@@H](O)CN[C@H](C)Cc2ccc(OC)cc2)c(C)n1 [Compound 03-277] |  |  |  | pEC50 [1, 7]: < 6.00; pEC50 [2, 8]: > 8.00
44 | [2H]C([2H])([2H])C(NCC(O)c1cccnc1C)(C([2H])([2H])[2H])C([2H])([2H])[2H] (stereo not drawn) [Compound 03-278] | 0.1 to 1 | < 0.01 |  | 
45 | [2H]C([2H])([2H])Nc1cccc([C@@H](O)CNC(C)(C)C)n1 [Compound 03-279] | > 1 | 0.1 to 1 |  | 
46 | CC(C)(C)NC[C@H](O)c1cccc(C(C)(C)CN)n1 [Compound 03-280] | > 1 | > 1 |  | 
